Data from US5874432A, “Saccharin derivatives useful as proteolytic enzyme inhibitors and compositions and method of use thereof” (priority 1997, dated 1999).
Read-outs that look alike come from different tables or passages of the source. One block for each molecule: values may come before it.

Key:
[1] = target: T1, human leukocyte elastase (Homo sapiens, UniProt P08246); assay: elastase inhibition using human leukocyte elastase (kon and Ki*); assay type: biochemical; conditions: for Ki: Ki* = koff/kon; for kon / Elastase 10^-3 × kon: rate of inactivation of enzyme, value is 10^-3 × kon; for kon: read-out: Elastase 10^-3 × kon
T1 sequence (P08246 30-267): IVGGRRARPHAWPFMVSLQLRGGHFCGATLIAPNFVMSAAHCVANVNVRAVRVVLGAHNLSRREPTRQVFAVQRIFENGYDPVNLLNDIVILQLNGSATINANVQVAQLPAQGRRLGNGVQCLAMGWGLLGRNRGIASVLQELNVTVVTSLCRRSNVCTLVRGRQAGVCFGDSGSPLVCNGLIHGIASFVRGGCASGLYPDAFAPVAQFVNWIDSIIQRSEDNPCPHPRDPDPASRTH

[2] = target: α-Chymotrypsin (Bos taurus, UniProt P00766); assay: α-chymotrypsin inhibition (kon and Ki*); assay type: biochemical; conditions: for Ki: Ki* = koff/kon
Experimental: Measurement of the inhibition constant, Ki, of a HLE-inhibitor complex has been described for "truly reversible inhibition constants" usually concerning competitive inhibitors. [Cha, Biochem. Pharmacol., 24, 2177-2185 (1975)]. […] Thus, instead of measuring a Ki, a Ki * is calculated which is defined as the ratio of the koff /kon, the rate of reactivation of the enzyme to the rate of inactivation of the enzyme. The values of koff and kon are measured and Ki * is then calculated. The rate of inactivation, kon, of enzymatic activity was determined for the compounds tested by measuring the enzyme activity of an aliquot of the respective enzyme as a function of time after addition of the test compound. […] The rate of inactivation is then equal to [formula] where [I] is the concentration of the inhibiting compound. The reactivation constant, koff, is similarly determined and the inhibition constant, Ki *, is then calculated as Ki *=koff /kon The values obtained for kon and Ki * for specific substituted saccharin derivatives are shown in TABLE F, the compounds being identified by the Example numbers above where their preparations are described.

[3] = read-out: α-Chymotrypsin 10^-3 × kon

Structure (SMILES): O=C1c2ccccc2S(=O)(=O)N1CS(=O)(=O)c1ncccn1 [Example 14, 2-(2-pyrimidylsulfonylmethyl)saccharin]
Ki ([1]; read-out: Elastase Ki *): 138 nM | kon [1]: 600 M⁻¹ s⁻¹ | Ki [2]: 392 nM | kon [2, 3]: 2800 M⁻¹ s⁻¹

Structure (SMILES): Cn1nnnc1SCN1C(=O)c2ccccc2S1(=O)=O [Example 8, 2-(1-methyl-1H-tetrazol-5-ylthiomethyl)saccharin]
kon [1]: 1000 M⁻¹ s⁻¹ | Ki [2]: 523 nM | kon ([2]; rate of inactivation of enzyme, value is 10^-3 × kon): 2100 M⁻¹ s⁻¹

Structure (SMILES): O=C1c2c(-c3ccccc3)cccc2S(=O)(=O)N1CCl [Example 18, 2-chloromethyl-4-phenylsaccharin]
Ki ([1]; read-out: Elastase Ki *): 100 nM | kon [1]: 1000 M⁻¹ s⁻¹ | Ki [2]: 620 nM | kon [2, 3]: 210 M⁻¹ s⁻¹

Structure (SMILES): O=C1c2ccccc2S(=O)(=O)N1C[S+]([O-])c1nnnn1-c1ccccc1 (centres unmarked) [Example 10, 2-(1-phenyl-1H-tetrazol-5-ylsulfinylmethyl)saccharin]
Ki ([1]; read-out: Elastase Ki *): 11 nM | kon [1]: 7000 M⁻¹ s⁻¹ | Ki [2]: 157 nM | kon [2, 3]: 7000 M⁻¹ s⁻¹

Structure (SMILES): CC(=O)Nc1cccc(-n2nnnc2SCN2C(=O)c3ccccc3S2(=O)=O)c1 [Example 6, 2-[1-(3-acetamidophenyl)-1H-tetrazol-5-ylthiomethyl]saccharin]
Ki ([1]; read-out: Elastase Ki *): 15 nM | kon [1]: 5500 M⁻¹ s⁻¹ | Ki [2]: 300 nM | kon [2, 3]: 3700 M⁻¹ s⁻¹

Structure (SMILES): O=C1c2c(Cl)cccc2S(=O)(=O)N1Cn1nnn(-c2ccccc2)c1=S [Example 5, 4-chloro-2-(4-phenyl-5-thioxotetrazolin-1-ylmethyl)saccharin]
Ki ([1]; read-out: Elastase Ki *): 6 nM | kon [1]: 44000 M⁻¹ s⁻¹ | Ki [2]: 25 nM | kon [2, 3]: 6000 M⁻¹ s⁻¹

Structure (SMILES): O=C1c2c(Cl)cccc2S(=O)(=O)N1CCl [Example 3, 2-chloromethyl-4-chlorosaccharin]
Ki ([1]; read-out: Elastase Ki *): 0.5 nM | kon [1]: 450000 M⁻¹ s⁻¹ | Ki [2]: 26 nM | kon [2, 3]: 5800 M⁻¹ s⁻¹

Structure (SMILES): O=C1c2ccccc2S(=O)(=O)N1CS(=O)(=O)c1ccccc1 [Example 12, 2-(phenylsulfonylmethyl)saccharin]
Ki ([1]; read-out: Elastase Ki *): 82 nM | kon [1]: 970 M⁻¹ s⁻¹ | Ki [2]: 1000 nM | kon [2, 3]: 1100 M⁻¹ s⁻¹

Structure (SMILES): O=C1c2ccccc2S(=O)(=O)N1C[S+]([O-])c1ncccn1 (centres unmarked) [Example 13, 2-(2-pyrimidylsulfinylmethyl)saccharin]
Ki ([1]; read-out: Elastase Ki *): 285 nM | kon [1]: 300 M⁻¹ s⁻¹ | Ki [2]: 423 nM | kon [2, 3]: 2600 M⁻¹ s⁻¹

Structure (SMILES): COC(=O)C(Sc1nnnn1-c1ccccc1)N1C(=O)c2ccccc2S1(=O)=O (centres unmarked) [Example 17, methyl 2-(1-phenyl-1H-tetrazol-5-ylthio)-2-(2-saccharinyl)acetate]
Ki ([1]; read-out: Elastase Ki *): 270 nM | kon [1]: 2900 M⁻¹ s⁻¹

Structure (SMILES): O=C1c2ccccc2S(=O)(=O)N1CSc1nnnn1C1CCCCC1 [Example 9, 2-(1-cyclohexyl-1H-tetrazol-5-ylthiomethyl)saccharin]
kon [1]: 2500 M⁻¹ s⁻¹

Structure (SMILES): CC(C)c1cccc2c1C(=O)N(Cn1nnn(-c3cccnc3)c1=S)S2(=O)=O [Example 30Z]
Ki ([1]; read-out: Elastase Ki *): 0.5 nM | kon [1]: 70000 M⁻¹ s⁻¹

Structure (SMILES): CC(=O)OCN1C(=O)c2c(Cl)cccc2S1(=O)=O [Example 2, 2-acetoxymethyl-4-chlorosaccharin]
Ki ([1]; read-out: Elastase Ki *): 45 nM | kon [1]: 4900 M⁻¹ s⁻¹ | Ki [2]: 51 nM | kon [2, 3]: 2900 M⁻¹ s⁻¹

Structure (SMILES): CC(=O)OCN1C(=O)c2c(C)cccc2S1(=O)=O [Example 1, 2-acetoxymethyl-4-methylsaccharin]
Ki ([1]; read-out: Elastase Ki *): 102 nM | kon [1]: 630 M⁻¹ s⁻¹ | Ki [2]: 917 nM | kon [2, 3]: 1200 M⁻¹ s⁻¹

Structure (SMILES): CCC(CC)c1cccc2c1C(=O)N(CCl)S2(=O)=O [Example 22C, 2-chloromethyl-4-(3-pentyl) saccharin]
Ki ([1]; read-out: Elastase Ki *): 0.4 nM | kon [1]: 105000 M⁻¹ s⁻¹

Ki ([1]; read-out: Elastase Ki *): 2600 nM
Structure (SMILES): O=C(CC(c1ccccc1)c1ccccc1)Nc1ccc2c(c1)C(=O)N(CSc1nnnn1-c1ccccc1)S2(=O)=O [Example 16, 5-(3,3-diphenylpropionamido)-2-(1-phenyl-1H-tetrazol-5-ylthiomethyl)saccharin]

Structure (SMILES): O=C1c2ccccc2S(=O)(=O)N1CSc1nc(-c2ccccc2)ns1 [Example 30AF]
Ki ([1]; read-out: Elastase Ki *): 12.5 nM | Elastase 10^-3 × kon [1]: 4.2 M^-1 sec^-1

Structure (SMILES): COc1cccc2c1C(=O)N(CCl)S2(=O)=O [Example 22A, 2-chloromethyl-4-methoxysaccharin]
Ki ([1]; read-out: Elastase Ki *): 6 nM | kon [1]: 12400 M⁻¹ s⁻¹

Structure (SMILES): CCOc1cccc2c1C(=O)N(CSc1nnnn1CC(=O)N(C)C)S2(=O)=O [Example 30AX]
Ki ([1]; read-out: Elastase Ki *): 16 nM | kon [1]: 7500 M⁻¹ s⁻¹

Structure (SMILES): CCOC(=O)Cn1nnnc1SCN1C(=O)c2ccccc2S1(=O)=O [Example 30AP]
Ki ([1]; read-out: Elastase Ki *): 51 nM | kon [1]: 1300 M⁻¹ s⁻¹

Structure (SMILES): CCc1cccc2c1C(=O)N(CCl)S2(=O)=O [Example 28]
Ki ([1]; read-out: Elastase Ki *): 2.5 nM | Elastase 10^-3 × kon [1]: 50.7 M^-1 sec^-1

Structure (SMILES): Nc1cccc(-n2nnnc2SCN2C(=O)c3ccccc3S2(=O)=O)c1 [Example 30C]
Ki ([1]; read-out: Elastase Ki *): 17 nM | kon [1]: 2500 M⁻¹ s⁻¹

Structure (SMILES): CC(C)c1cccc2c1C(=O)N(CSc1nnnn1CCN1CCOCC1)S2(=O)=O [Example 30BI]
Ki ([1]; read-out: Elastase Ki *): 0.5 nM | kon [1]: 39000 M⁻¹ s⁻¹

Structure (SMILES): O=C1c2ccc([N+](=O)[O-])cc2S(=O)(=O)N1CSc1nnnn1-c1ccccc1 [Example 31C]
Ki ([1]; read-out: Elastase Ki *): 300 nM | kon [1]: 3400 M⁻¹ s⁻¹

Structure (SMILES): CC(C)Oc1cccc2c1C(=O)N(CSc1nnnn1-c1ccccc1)S2(=O)=O [Example 30AU]
kon [1]: 8900 M⁻¹ s⁻¹

Structure (SMILES): O=C1c2ccccc2S(=O)(=O)N1COc1ccc([N+](=O)[O-])cc1 [Example 15, 2-(4-nitrophenoxymethyl)saccharin]
Ki ([1]; read-out: Elastase Ki *): 69 nM | kon [1]: 3200 M⁻¹ s⁻¹

Structure (SMILES): O=C1c2ccccc2S(=O)(=O)N1CSc1nnnn1-c1cccnc1 [Example 30Q]
Ki ([1]; read-out: Elastase Ki *): 70.4 nM | kon [1]: 1380 M⁻¹ s⁻¹

Structure (SMILES): CCOc1ccc(OCCOCCOC)c2c1C(=O)N(CSc1nnnn1-c1ccccc1)S2(=O)=O [Example 30L]
Ki ([1]; read-out: Elastase Ki *): 7.6 nM | kon [1]: 6500 M⁻¹ s⁻¹

Structure (SMILES): O=C1c2ccccc2S(=O)(=O)N1CSc1nncn1-c1ccccc1 [Example 30I]
Ki ([1]; read-out: Elastase Ki *): 650 nM | kon [1]: 450 M⁻¹ s⁻¹

Structure (SMILES): O=C1c2ccccc2S(=O)(=O)N1CF [Example 27, 2-fluoromethylsaccharin]
Ki ([1]; read-out: Elastase Ki *): 13 nM | kon [1]: 7500 M⁻¹ s⁻¹

Ki ([1]; read-out: Elastase Ki *): 10500 nM
Structure (SMILES): CC(C)(C)CC(C)(C)c1ccc2c(c1)C(=O)N(CSc1nnnn1-c1ccccc1)S2(=O)=O [Example 30A]

Ki ([1]; human leukocyte elastase, read-out: Ki * values, elastase inhibition (Examples 41-57)): 1000 nM
Structure (SMILES): CC(C)c1cccc2c1C(=O)N(CN1C(=O)CNS1(=O)=O)S2(=O)=O [Example 42D]
